Source: patent US9550811B2, “Peptide scaffold design” (BIONOR IMMUNO AS, priority 2010, dated 2017)

How the values were obtained:
Assay in all cases: REVEAL binding assay
Settings in all cases: score as percentage of the signal generated by the positive control peptide
HLA-A29 = tested on: HLA-A29
HLA-B14 = tested on: HLA-B14
Source text: (§2) HLA-A1, HLA-A2, HLA-A3, HLA-A11, HLA-A24, HLA-A29, HLA-B7, HLA-B8, HLA-B14, HLA-B15, HLA-B27, HLA-B35, HLA-B40.
(§3) The REVEAL™ binding assay determined the ability of each candidate peptide to bind to one or more MHC class I alleles and stabilizing the MHC-peptide complex. […] Detection is based on the presence or absence of the native conformation of the MHC-peptide complex. Each peptide is given a score relative to the positive control peptide, which is a known T cell epitope.

HLA-B35 = tested on: HLA-B35
Source text: as §2, §3

HLA-B8 = tested on: HLA-B8
Source text: as §2, §3

HLA-A11 = HLA-A11 (Homo sapiens, UniProt P04439, A114D/F33Y/S129P)
How it was run: (§1)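 Synthetic nonamer peptides were tested for their ability to bind and stabilize MHC class I–peptide complexes, detected by the native conformation of the complex. Each peptide is scored relative to a positive-control known T-cell epitope.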

HLA-A3 = HLA-A3 (Homo sapiens, UniProt P04439)
How it was run: as §1

HLA-A2 = HLA-A2 (Homo sapiens, UniProt P04439, D140Y/D185E/D98H/E176V/E277Q/G131W/G231S/I119V/I121R/I166T/I218V/N151K/N90K/P208A/P217A/Q86G/Q94H/R138H/R169H)
How it was run: as §1

HLA-B27 = HLA-B27 (Homo sapiens, UniProt P01889, D138H/D201E/E176V/E204Q/G107R/H137Y/K202T/N104T/N87E/Q56L/Q94K/R106L/R155S/R180L/S101D/S121N/S48T/Y140D/Y33H/Y91C)
How it was run: as §1

HLA-B7 = HLA-B7 (Homo sapiens, UniProt P01889)
How it was run: as §1

HLA-B15 = tested on: HLA-B15
Source text: as §2, §3

HLA-A24 = tested on: HLA-A24
HLA-A1 = tested on: HLA-A1
HLA-B40 = tested on: HLA-B40
How it was run: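 Each candidate ninemer is assessed for binding and stabilizing the allele's MHC–peptide complex, detected as native conformation. Results are given relative to a positive control epitope, and an intermediate binder serves as a performance check.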

Sequence of HLA-B7 (P61769 21-119): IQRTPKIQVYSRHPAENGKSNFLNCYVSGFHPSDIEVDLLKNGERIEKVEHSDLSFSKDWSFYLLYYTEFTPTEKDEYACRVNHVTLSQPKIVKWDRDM
Sequence of HLA-B7 (P01889 25-299): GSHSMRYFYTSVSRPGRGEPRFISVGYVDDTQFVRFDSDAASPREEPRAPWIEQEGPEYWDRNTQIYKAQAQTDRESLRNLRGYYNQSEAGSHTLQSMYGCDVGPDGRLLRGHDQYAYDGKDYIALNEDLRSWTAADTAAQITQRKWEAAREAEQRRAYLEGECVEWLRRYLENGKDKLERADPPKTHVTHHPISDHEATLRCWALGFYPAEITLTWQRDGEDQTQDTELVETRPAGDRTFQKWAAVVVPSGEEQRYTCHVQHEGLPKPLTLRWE
Sequence of HLA-A3 (P04439 25-299): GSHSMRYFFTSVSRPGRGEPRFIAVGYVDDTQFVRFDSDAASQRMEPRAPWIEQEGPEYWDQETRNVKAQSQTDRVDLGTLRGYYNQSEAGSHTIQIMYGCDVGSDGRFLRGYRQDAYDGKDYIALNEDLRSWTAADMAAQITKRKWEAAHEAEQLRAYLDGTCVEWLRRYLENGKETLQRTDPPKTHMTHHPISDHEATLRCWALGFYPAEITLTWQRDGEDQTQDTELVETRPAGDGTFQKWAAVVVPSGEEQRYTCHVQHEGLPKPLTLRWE
Sequence of HLA-A3 (P61769 21-119, further chain): as the sequence (P61769 21-119) above

RNLGRVIET
REVEAL binding score, HLA-type A29 (HLA-A29): 15.13% | REVEAL binding score, HLA-type B14 (HLA-B14): 0.26% | REVEAL binding score, HLA-type B35 (HLA-B35): 2.34% | REVEAL binding score, HLA-type B8 (HLA-B8): 15.51% | REVEAL binding score, HLA-type A11 (HLA-A11): 13.68% | REVEAL binding score, HLA-type A3 (HLA-A3): 5.52% | REVEAL binding score, HLA-type A2 (HLA-A2): 5.96% | REVEAL binding score, HLA-type B27 (HLA-B27): 0.91% | REVEAL binding score, HLA-type B7 (HLA-B7): 0.71% | REVEAL binding score, HLA-type B15 (HLA-B15): 8.84% | REVEAL binding score, HLA-type A24 (HLA-A24): 0.51% | REVEAL binding score, HLA-type A1 (HLA-A1): 15.93% | REVEAL binding score, HLA-type B40 (HLA-B40): 27.57%

RVIAHGLRL
REVEAL binding score, HLA-type A29 (HLA-A29): 23.22% | REVEAL binding score, HLA-type B14 (HLA-B14): 0.42% | REVEAL binding score, HLA-type B35 (HLA-B35): 1.43% | REVEAL binding score, HLA-type B8 (HLA-B8): 12.60% | REVEAL binding score, HLA-type A11 (HLA-A11): 17.75% | REVEAL binding score, HLA-type A3 (HLA-A3): 13.32% | REVEAL binding score, HLA-type A2 (HLA-A2): 18.68% | REVEAL binding score, HLA-type B27 (HLA-B27): 15.57% | REVEAL binding score, HLA-type B7 (HLA-B7): 102.96% | REVEAL binding score, HLA-type B15 (HLA-B15): 106.77% | REVEAL binding score, HLA-type A24 (HLA-A24): 0.79% | REVEAL binding score, HLA-type A1 (HLA-A1): 11.60% | REVEAL binding score, HLA-type B40 (HLA-B40): 24.08%

RVIETLTSG
REVEAL binding score, HLA-type A29 (HLA-A29): 15.52% | REVEAL binding score, HLA-type B14 (HLA-B14): 0.11% | REVEAL binding score, HLA-type B35 (HLA-B35): 1.90% | REVEAL binding score, HLA-type B8 (HLA-B8): 11.83% | REVEAL binding score, HLA-type A11 (HLA-A11): 3.25% | REVEAL binding score, HLA-type A3 (HLA-A3): 2.23% | REVEAL binding score, HLA-type A2 (HLA-A2): 9.82% | REVEAL binding score, HLA-type B27 (HLA-B27): 2.32% | REVEAL binding score, HLA-type B7 (HLA-B7): 0.50% | REVEAL binding score, HLA-type B15 (HLA-B15): 37.99% | REVEAL binding score, HLA-type A24 (HLA-A24): 0.96% | REVEAL binding score, HLA-type A1 (HLA-A1): 11.61% | REVEAL binding score, HLA-type B40 (HLA-B40): 32.30%

SRNLGKVID
REVEAL binding score, HLA-type A29 (HLA-A29): 9.94% | REVEAL binding score, HLA-type B14 (HLA-B14): 0.67% | REVEAL binding score, HLA-type B35 (HLA-B35): 4.59% | REVEAL binding score, HLA-type B8 (HLA-B8): 16.71% | REVEAL binding score, HLA-type A11 (HLA-A11): 4.45% | REVEAL binding score, HLA-type A3 (HLA-A3): 3.46% | REVEAL binding score, HLA-type A2 (HLA-A2): 4.94% | REVEAL binding score, HLA-type B27 (HLA-B27): 1.28% | REVEAL binding score, HLA-type B7 (HLA-B7): 1.28% | REVEAL binding score, HLA-type B15 (HLA-B15): 11.25% | REVEAL binding score, HLA-type A24 (HLA-A24): 0.71% | REVEAL binding score, HLA-type A1 (HLA-A1): 15.30% | REVEAL binding score, HLA-type B40 (HLA-B40): 33.93%

TFSIYLIVS
REVEAL binding score, HLA-type A29 (HLA-A29): 8.58% | REVEAL binding score, HLA-type B14 (HLA-B14): 0.37% | REVEAL binding score, HLA-type B35 (HLA-B35): 2.48% | REVEAL binding score, HLA-type B8 (HLA-B8): 9.52% | REVEAL binding score, HLA-type A11 (HLA-A11): 2.89% | REVEAL binding score, HLA-type A3 (HLA-A3): 0.91% | REVEAL binding score, HLA-type A2 (HLA-A2): 2.02% | REVEAL binding score, HLA-type B27 (HLA-B27): 1.49% | REVEAL binding score, HLA-type B7 (HLA-B7): 1.28% | REVEAL binding score, HLA-type B15 (HLA-B15): 8.63% | REVEAL binding score, HLA-type A24 (HLA-A24): 0.60% | REVEAL binding score, HLA-type A1 (HLA-A1): 9.93% | REVEAL binding score, HLA-type B40 (HLA-B40): 23.23%

TGNIPGSTY
REVEAL binding score, HLA-type A29 (HLA-A29): 35.10% | REVEAL binding score, HLA-type B14 (HLA-B14): 1.15% | REVEAL binding score, HLA-type B35 (HLA-B35): 48.40% | REVEAL binding score, HLA-type B8 (HLA-B8): 10.25% | REVEAL binding score, HLA-type A11 (HLA-A11): 6.06% | REVEAL binding score, HLA-type A3 (HLA-A3): 13.04% | REVEAL binding score, HLA-type A2 (HLA-A2): 3.59% | REVEAL binding score, HLA-type B27 (HLA-B27): 1.98% | REVEAL binding score, HLA-type B7 (HLA-B7): 1.32% | REVEAL binding score, HLA-type B15 (HLA-B15): 52.30% | REVEAL binding score, HLA-type A24 (HLA-A24): 0.86% | REVEAL binding score, HLA-type A1 (HLA-A1): 10.58% | REVEAL binding score, HLA-type B40 (HLA-B40): 38.15%

TGNLPGCSF
REVEAL binding score, HLA-type A29 (HLA-A29): 18.89% | REVEAL binding score, HLA-type B14 (HLA-B14): 0.86% | REVEAL binding score, HLA-type B35 (HLA-B35): 11.40% | REVEAL binding score, HLA-type B8 (HLA-B8): 8.62% | REVEAL binding score, HLA-type A11 (HLA-A11): 2.56% | REVEAL binding score, HLA-type A3 (HLA-A3): 3.71% | REVEAL binding score, HLA-type A2 (HLA-A2): 5.18% | REVEAL binding score, HLA-type B27 (HLA-B27): 2.37% | REVEAL binding score, HLA-type B7 (HLA-B7): 2.38% | REVEAL binding score, HLA-type B15 (HLA-B15): 45.07% | REVEAL binding score, HLA-type A24 (HLA-A24): 4.81% | REVEAL binding score, HLA-type A1 (HLA-A1): 11.97% | REVEAL binding score, HLA-type B40 (HLA-B40): 73.71%

VARALAHGV
REVEAL binding score, HLA-type A29 (HLA-A29): 29.43% | REVEAL binding score, HLA-type B14 (HLA-B14): 0.17% | REVEAL binding score, HLA-type B35 (HLA-B35): 0.27% | REVEAL binding score, HLA-type B8 (HLA-B8): 14.31% | REVEAL binding score, HLA-type A11 (HLA-A11): 3.47% | REVEAL binding score, HLA-type A3 (HLA-A3): 2.77% | REVEAL binding score, HLA-type A2 (HLA-A2): 5.85% | REVEAL binding score, HLA-type B27 (HLA-B27): 0.62% | REVEAL binding score, HLA-type B7 (HLA-B7): 31.59% | REVEAL binding score, HLA-type B15 (HLA-B15): 11.26% | REVEAL binding score, HLA-type A24 (HLA-A24): 0.32% | REVEAL binding score, HLA-type A1 (HLA-A1): 16.10% | REVEAL binding score, HLA-type B40 (HLA-B40): 44.29%
